According to US20210193322A1, “NETWORK METHODS FOR NEURODEGENERATIVE DISEASES” (Genting TauRx Diagnostic Centre SDN BHD, priority 2018, published 2021):

Key:
[1] = system: AD diagnosed patients; experiment: Structural correlation network analysis (MRI cortical thickness and surface area correlation matrices, node degree) in AD patients; format: in vivo, human
[2] = system: bvFTD; conditions: cited from earlier work

Row | SMILES | number of inverse/compensatory non-homologous cortical thickness correlations compared with healthy elderly controls ([1]; 54 AD patients with CDR 0.5 only, baseline and week 65, LMTM 8 mg/day monotherapy, vs 202 healthy elderly, FIGS. 27A-27D) | number of inverse/compensatory non-homologous surface area correlations compared with healthy elderly controls ([1]; 54 AD patients with CDR 0.5 only, baseline and week 65, LMTM 8 mg/day monotherapy, vs 202 healthy elderly, FIGS. 28A-28D) | cortical thickness networks compared with healthy elderly controls ([1]; 96 AD patients (CDR 0.5, 1 or 2), baseline and week 65, LMTM 8 mg/day monotherapy, vs 202 healthy elderly, FIGS. 25A-25D) | surface area networks compared with healthy elderly controls ([1]; 96 AD patients (CDR 0.5, 1 or 2), baseline and week 65, LMTM 8 mg/day monotherapy, vs 202 healthy elderly, FIGS. 26A-26D) | compensatory network correlations (especially non-homologous, positive and inverse correlations) ([1]; summary statement) | cortical thickness correlations, within-lobe (positive) and between-lobe compensatory (inverse) ([1]; week 65 vs baseline, LMTM 8 mg/day monotherapy, 96 AD patients, FIGS. 21A-21B) | surface area correlations, within-lobe (positive) and between-lobe compensatory (inverse) ([1]; week 65 vs baseline, LMTM 8 mg/day monotherapy, 96 AD patients, FIGS. 23A-23B) | effect on cortical thickness structural correlation networks (correlation matrix) ([1]; week 65 vs baseline, LMTM 8 mg/day with symptomatic AD treatments (ach1), 445 AD patients, FIGS. 19A-19B) | effect on non-homologous inter-lobar node degree (cortical thickness and surface area, positive and inverse correlations) ([1]; week 65 vs week 0, LMTM 8 mg/day as add-on, ach1 group, FIGS. 20A-20D) | number of positive and inverse non-homologous cortical thickness correlations (inter-lobar node degree) ([1]; week 65 vs week 0, LMTM 8 mg/day monotherapy, ach0 group, FIGS. 22A-22B) | number of positive and inverse/compensatory surface area correlations (non-homologous inter-lobar node degree) ([1]; week 65 vs week 0, LMTM 8 mg/day monotherapy, ach0 group, FIGS. 24A-24B) | treatment benefit in bvFTD [2]
1 | CN(C)c1ccc2c(c1)Sc1cc(N(C)C)ccc1N2 [LMTM, leuco-methylthioninium bis(hydromethanesulfonate)] | equivalent to the normal elderly controls | either equivalent to or lower than normal elderly controls | brings the cortical thickness networks closer to normal | normalizes surface area networks | reduce compensatory network correlations | major reduction in thickness correlations | significant reductions in surface area correlations | minimal effect | minimal overall effect | significant reduction | significant reduction | 
2 | CC12CC3CC(C)(C1)CC(N)(C3)C2 [memantine] |  |  |  |  |  |  |  |  |  |  |  | no treatment benefit
